# Read-outs that look alike come from different tables or passages of the source.
# How the values were obtained:
# Format in all cases: cell-based, human
# calpain = assay: Calpain activity assay (fluorogenic substrate, immunofluorescence); details: MCF-7 cells; for Calpain activation, in words: day 3 or 6, FIG. 12A, 13A,B
# Method: Calpain and caspase-12 activities were measured with the cell-permeable fluorogenic peptide substrates t-Boc-Leu-Met-CMAC (50 μM; CMAC, 7-amino-4-chloromethyl coumarin; Molecular Probes) and Ala-Thr-Ala-Asp-AFC (50 μM; AFC, 7-amino-4-trifluoromethyl coumarin; Caspase-12 Fluorometric Assay Kit, BioVision), respectively. See, e.g., Roser and Gores (2000) Meth. Mol. Biol. 144:2452-2466. Polyclonal antibodies directed against caspase-12 (BioVision) and monoclonal antibodies directed against the calpain small (cleaved) subunit (Chemicon) were used to evaluate activation of these proteases. For immunofluorescence labeling, the fixed and permeabilized cell preparations were pre-incubated with non-specific serum for 20 min, incubated for 1 h at 37° C. or overnight at 4° C. with the primary antibodies and 1 h at room temperature with secondary antibodies using ALEXA FLUOR-488 signal-amplification mouse antibodies (Molecular Probes) and FITC- or Texas Red-conjugated anti-rabbit and anti-mouse IgG (Molecular Probes). Fluorescence microscopy was carried out as described above for Ca^2+ imaging. Image analysis and measurement of fluorescence intensity was performed using MetaMorph 6.3 software (Molecular Devices/Universal Imaging), as described previously in Sergeev (1996) Endocrine 5: 335-340.
# [1] = test system: MCF-7 breast cancer cells; assay: Cell growth inhibition (cell number, total nucleic acid content); details: for IC50: MCF-7 cells, average of the day 3 and day 6 determinations, read-out: Inhibition of cell proliferation (IC50); for Inhibition of proliferation, in words: MCF-7 cells, 1, 3 or 6 days, FIG. 7
# Method: Human colon carcinoma COLO205 and HT-29 cell lines (American Type Culture Collection (ATTC), Manassas, Va.) and the leukemia cell line HL-60 were maintained at 37° C. in 5% CO2 air in RPMI 1640 medium supplemented with 10% heat-inactivated fetal bovine serum (Gibco BRL, Grand Island, N.Y.), 100 units/mL penicillin, 100 μg/mL streptomycin and 2 mM 1-glutamine. The human gastric carcinoma AGS cell line (CCRC 60102), obtained from the Food Industry Research and Development Institute (Hsinchu, Taiwan), was maintained as described above, except that DMEM/F 12 was used as the medium rather than the RPMI 1640 medium. The human breast carcinoma MCF-7 cell line MCF-7 (ATTC) was cultured in RPMI 1640 medium supplemented with 5% fetal calf serum at 37° C. in a humidified atmosphere of 5% CO2 in air. The mouse macrophage cell line RAW 264.7 was maintained in RPMI 1640 supplemented with 100 U/ml penicillin, 100 μg/ml streptomycin, and 10% heat-inactivated fetal calf serum.
# Cancer cells (2×10^5) were plated in 12-well Petri dishes. The next day, the medium was changed and treated with different concentration of the test compounds or compositions for 24 h. Where individual compounds were to be tested, stock solutions of the compound was prepared to contain 200 μM of the individual hydroxylated or non-hydroxylated PMF in dimethylsulfoxide (DMSO). Control cells were treated with DMSO to a final concentration of 0.05% (v/v). Depending on the objective of the particular experiment, cells were treating with test compound or composition for 1, 3 or 6 days. At the end of incubation, cells were harvested for cell count using a hemocytometer and measuring the cellular total nucleic acid content with the CyQUANT Cell Proliferation Assay Kit (Molecular Probes).
# FIG. 7 presents cell number data, where cell numbers of cells treated to PMFs are presented as a percentage of control cells. The IC50 values for inhibition of cell proliferation are presented in Table 15 in which the concentration inhibiting cell growth by 50%, IC50, is presented as the average of the day 3 and day 6 determinations. The apparent minimal effective concentrations, ECmin, for induction of cell death, apoptosis, and increase in [Ca^2+]i are also indicated.
# [Ca^2+]i in MCF-7 cells = Intracellular calcium measurement (fluo-3); details: for Basal level of [Ca^2+]i, in words: fluo-3/AM, day 3 and 6, dose-dependent; for Intracellular Ca^2+ levels, in words: 50-100 μM, day 6
# Method: Concentration of intracellular free Ca^2+ ([Ca^2+]i) was measured with Ca^2+ indicators fura-2 and fluo-3, as described in detail previously, for example, in Sergeev (2004) J. Steroid Biochem. Mol. Biol. 89-90:419-425. For [Ca^2+]i measurements with fluo-3, cells grown in the 96-well, black-wall plates were loaded with 2 μM of fluo-3/AM (Molecular Probes) in Dulbecco's PBS (D-PBS) supplemented with 0.1% DMSO for 40 min at 37° C. Fluorescence (485 nm excitation, 530 nm emission) was measured in the FLx800 plate reader, as described above. For [Ca^2+]i measurements with fura-2, cells grown on coverslips were loaded with 1 μM of fura-2/AM (Molecular Probes) in D-PBS supplemented with 0.1% DMSO and 0.01% Pluronic F-127 for 40 min at 37° C. The dynamics of intracellular Ca^2+ was assessed with cells in the microincubation chamber (37.0±0.2° C.) on a NIKON ECLIPSE TE-300 inverted microscope equipped for epifluorescence, ratiometric, digital imaging. The images were captured using SUPERFLUOR 40× 1.3 NA oil-immersion objective (Nikon) and COOLSNAPFX digital CCD camera (Photometrics), ratioed (340/380 nm excitation, 510 nm emission) on a pixel-by-pixel basis, and stored for analysis. Image analysis was performed using METAFLUOR 6.3 software (Molecular Devices/Universal Imaging).
# [2] = test system: MCF-7 breast cancer cells; assay: Cell death by propidium iodide uptake; details: MCF-7 cells; for Cell death (propidium iodide), in words: evident at day 6, FIG. 9
# Method: MCF-7 cells were maintained and assayed as described in Section 8.4 above. Apoptosis was evaluated by the plasma membrane and nuclear changes as previously described in Sergeev (2004) J. Steroid Biochem. Mol. Biol. 89-90:419-425. Briefly, An Annexin V assay (ALEXA FLUOR 488 Annexin V Assay Kit; Molecular Probes) was used for detection of the apoptotic plasma membrane (loss of membrane asymmetry due to phosphatidylserine translocation). Fluorescence (485 nm excitation, 530 nm emission) of the Annexin V-abeled cells grown in 96-well plates was measured in the FLx800 plate reader with KC software (BioTek) and expressed in fluorescence units per 1×10^3 cells. Propidium iodide uptake was used to evaluate non-apoptotic and apoptotic cell death (the dye permeates plasma membrane and stain nucleic acids of both necrotic and the late apoptotic cells). Fluorescence (530 nm excitation, 620 nm emission) of the propidium iodide-labeled cells was also measured in the FLx800 reader. Additionally, HOECHST 33342 and ALEXA FLUOR 488 Annexin V were employed to visualize apoptotic nuclei (nuclear fragmentation) and the apoptotic plasma membrane, respectively. Fluorescence microscopy of HOECHST 33342- and Annexin V-labeled cells was performed as described below for the cellular Ca^2+ and immunofluorescence imaging.
Structure (SMILES),"Calpain activation, in words (calpain)","IC50 ([1]; Homo sapiens, MCF7) [µM]","Inhibition of proliferation, in words [1]","Increase in [Ca^2+]i (ECmin, apparent minimal effective concentration) ([Ca^2+]i in MCF-7 cells) [µM]","Basal level of [Ca^2+]i, in words ([Ca^2+]i in MCF-7 cells)","Induction of cell death (ECmin, apparent minimal effective concentration) [2] [µM]","Cell death (propidium iodide), in words [2]","Intracellular Ca^2+ levels, in words ([Ca^2+]i in MCF-7 cells)","Number of cells with activated calpain, in words (calpain; day 3 of treatment)",IC50 [1] [µM]
"COc1ccc(-c2cc(=O)c3c(OC)c(OC)c(OC)cc3o2)cc1O [Compound 5, 3′-hydroxy-5,6,7,4′-tetramethoxyflavone]",activation,10.5,inhibited proliferation of MCF-7 breast cancer cells in a dose- and time-dependent fashion,3.125,induced an increase in the basal level of [Ca^2+]i,6.25,induced death of MCF-7 breast cancer cells,,,
"COc1ccc(-c2cc(=O)c3c(OC)c(OC)c(OC)cc3o2)cc1OC [Compound 7, 5,6,7,3′,4′-pentamethoxyflavone, reference compound]",No significant calpain and caspase-12 activation,> 50,inhibited proliferation of MCF-7 breast cancer cells in a dose- and time-dependent fashion,>50,,>50,not effective in inducing non-apoptotic cell death,only a trend in increasing intracellular Ca^2+ levels,,
"COc1ccc(-c2oc3c(OC)c(OC)c(OC)c(O)c3c(=O)c2OC)cc1OC [Compound C, 5-hydroxy-3,6,7,8,3′,4′-hexamethoxyflavone]",activation,2.5,inhibited proliferation of MCF-7 breast cancer cells in a dose- and time-dependent fashion,1.56,induced an increase in the basal level of [Ca^2+]i,3.125,induced death of MCF-7 breast cancer cells,,,
"COc1ccc(-c2oc3c(OC)c(OC)c(OC)c(OC)c3c(=O)c2OC)cc1OC [D, 3,5,6,7,8,3,4-heptamethoxyflavone, reference compound]",No significant calpain and caspase-12 activation,,inhibited proliferation of MCF-7 breast cancer cells in a dose- and time-dependent fashion,>50,,>50,not effective in inducing non-apoptotic cell death,only a trend in increasing intracellular Ca^2+ levels,a trend in increasing the number of cells with activated calpain,> 50
